Measurements as given in the supplement of paper PMC10307832.

Experiments:
Assay in all cases: relative viability (nuclei count vs DMSO), 5 days (fraction); higher = more cells survive
TPCA-1 + Lapatinib = compound: C1=CC(=CC=C1C2=CC(=C(S2)NC(=O)N)C(=O)N)F [TPCA-1] + CS(=O)(=O)CCNCc1ccc(-c2ccc3ncnc(Nc4ccc(OCc5cccc(F)c5)c(Cl)c4)c3c2)o1 [Lapatinib] (partner 2 µM)
Procedure, shortened: (§1)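 Relative viability equals treated-well nuclei counts divided by vehicle-well nuclei counts. Counts came from 4× images of lung cancer cell lines grown in 1536-well plates for 5 days after pin-tool dosing on the day after seeding. Dosing used one drug alone or a fixed anchor-drug dose plus five library-drug doses (not always all listed) in √10 steps, and values are medians of duplicate plates.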

TPCA-1 + Crizotinib = compound: C1=CC(=CC=C1C2=CC(=C(S2)NC(=O)N)C(=O)N)F [TPCA-1] + C[C@@H](Oc1cc(-c2cnn(C3CCNCC3)c2)cnc1N)c1c(Cl)ccc(F)c1Cl [Crizotinib] (partner 1 µM)
Procedure, shortened: as §1

Lestaurtinib + Dasatinib = compound: C[C@]12O[C@H](C[C@]1(O)CO)n1c3ccccc3c3c4c(c5c6ccccc6n2c5c31)CNC4=O [Lestaurtinib] + Cc1nc(Nc2ncc(C(=O)Nc3c(C)cccc3Cl)s2)cc(N2CCN(CCO)CC2)n1 [Dasatinib] (partner 0.075 µM)
Procedure, shortened: as §1

## NCI-H2170
TPCA-1 + Lapatinib; first compound 0.04 µM
  relative viability: 0.263
TPCA-1 + Lapatinib; first compound 0.1265 µM
  relative viability: 0.272
TPCA-1 + Lapatinib; first compound 0.4 µM
  relative viability: 0.261
TPCA-1 + Lapatinib; first compound 1.265 µM
  relative viability: 0.284
TPCA-1 + Lapatinib; first compound 4 µM
  relative viability: 0.248
TPCA-1 + Crizotinib; first compound 0.04 µM
  relative viability: 1.33
TPCA-1 + Crizotinib; first compound 0.1265 µM
  relative viability: 1.15
TPCA-1 + Crizotinib; first compound 0.4 µM
  relative viability: 1.16
TPCA-1 + Crizotinib; first compound 1.265 µM
  relative viability: 1.13
TPCA-1 + Crizotinib; first compound 4 µM
  relative viability: 0.583
Lestaurtinib + Dasatinib; first compound 0.005 µM
  relative viability: 0.493
Lestaurtinib + Dasatinib; first compound 0.01581 µM
  relative viability: 0.551
Lestaurtinib + Dasatinib; first compound 0.05 µM
  relative viability: 0.466
Lestaurtinib + Dasatinib; first compound 0.1581 µM
  relative viability: 0.364
Lestaurtinib + Dasatinib; first compound 0.5 µM
  relative viability: 0.376

## HCC-366
TPCA-1 + Lapatinib; first compound 0.04 µM
  relative viability: 1.06
TPCA-1 + Lapatinib; first compound 0.1265 µM
  relative viability: 1.01
TPCA-1 + Lapatinib; first compound 0.4 µM
  relative viability: 1.02
TPCA-1 + Lapatinib; first compound 1.265 µM
  relative viability: 1.02
TPCA-1 + Lapatinib; first compound 4 µM
  relative viability: 0.217
TPCA-1 + Crizotinib; first compound 0.04 µM
  relative viability: 0.562
TPCA-1 + Crizotinib; first compound 0.1265 µM
  relative viability: 0.644
TPCA-1 + Crizotinib; first compound 0.4 µM
  relative viability: 0.588
TPCA-1 + Crizotinib; first compound 1.265 µM
  relative viability: 0.472
TPCA-1 + Crizotinib; first compound 4 µM
  relative viability: 0.258
Lestaurtinib + Dasatinib; first compound 0.005 µM
  relative viability: 0.74
Lestaurtinib + Dasatinib; first compound 0.01581 µM
  relative viability: 0.659
Lestaurtinib + Dasatinib; first compound 0.05 µM
  relative viability: 0.518
Lestaurtinib + Dasatinib; first compound 0.1581 µM
  relative viability: 0.516
Lestaurtinib + Dasatinib; first compound 0.5 µM
  relative viability: 0.185

## NCI-H2347
TPCA-1 + Lapatinib; first compound 0.04 µM
  relative viability: 1.07
TPCA-1 + Lapatinib; first compound 0.1265 µM
  relative viability: 0.739
TPCA-1 + Lapatinib; first compound 0.4 µM
  relative viability: 0.963
TPCA-1 + Lapatinib; first compound 1.265 µM
  relative viability: 0.78
TPCA-1 + Lapatinib; first compound 4 µM
  relative viability: 0.896
TPCA-1 + Crizotinib; first compound 0.04 µM
  relative viability: 0.806
TPCA-1 + Crizotinib; first compound 0.1265 µM
  relative viability: 0.557
TPCA-1 + Crizotinib; first compound 0.4 µM
  relative viability: 0.676
TPCA-1 + Crizotinib; first compound 1.265 µM
  relative viability: 0.553
TPCA-1 + Crizotinib; first compound 4 µM
  relative viability: 0.521
Lestaurtinib + Dasatinib; first compound 0.005 µM
  relative viability: 0.278
Lestaurtinib + Dasatinib; first compound 0.01581 µM
  relative viability: 0.15
Lestaurtinib + Dasatinib; first compound 0.05 µM
  relative viability: 0.319
Lestaurtinib + Dasatinib; first compound 0.1581 µM
  relative viability: 0.252
Lestaurtinib + Dasatinib; first compound 0.5 µM
  relative viability: 0.253

## COR-L 105
TPCA-1 + Lapatinib; first compound 0.04 µM
  relative viability: 0.379
TPCA-1 + Lapatinib; first compound 0.1265 µM
  relative viability: 0.368
TPCA-1 + Lapatinib; first compound 0.4 µM
  relative viability: 0.384
TPCA-1 + Lapatinib; first compound 1.265 µM
  relative viability: 0.272
TPCA-1 + Lapatinib; first compound 4 µM
  relative viability: 0.268
TPCA-1 + Crizotinib; first compound 0.04 µM
  relative viability: 0.812
TPCA-1 + Crizotinib; first compound 0.1265 µM
  relative viability: 1.14
TPCA-1 + Crizotinib; first compound 0.4 µM
  relative viability: 0.751
TPCA-1 + Crizotinib; first compound 1.265 µM
  relative viability: 0.629
TPCA-1 + Crizotinib; first compound 4 µM
  relative viability: 0.347
Lestaurtinib + Dasatinib; first compound 0.005 µM
  relative viability: 0.32
Lestaurtinib + Dasatinib; first compound 0.01581 µM
  relative viability: 0.32
Lestaurtinib + Dasatinib; first compound 0.05 µM
  relative viability: 0.245
Lestaurtinib + Dasatinib; first compound 0.1581 µM
  relative viability: 0.258
Lestaurtinib + Dasatinib; first compound 0.5 µM
  relative viability: 0.145

## 201T
TPCA-1 + Lapatinib; first compound 0.04 µM
  relative viability: 1.05
TPCA-1 + Lapatinib; first compound 0.1265 µM
  relative viability: 1.02
TPCA-1 + Lapatinib; first compound 0.4 µM
  relative viability: 1.01
TPCA-1 + Lapatinib; first compound 1.265 µM
  relative viability: 1.01
TPCA-1 + Lapatinib; first compound 4 µM
  relative viability: 1.05
TPCA-1 + Crizotinib; first compound 0.04 µM
  relative viability: 1.04
TPCA-1 + Crizotinib; first compound 0.1265 µM
  relative viability: 0.998
TPCA-1 + Crizotinib; first compound 0.4 µM
  relative viability: 1.08
TPCA-1 + Crizotinib; first compound 1.265 µM
  relative viability: 1.02
TPCA-1 + Crizotinib; first compound 4 µM
  relative viability: 1.03
Lestaurtinib + Dasatinib; first compound 0.005 µM
  relative viability: 0.598
Lestaurtinib + Dasatinib; first compound 0.01581 µM
  relative viability: 0.546
Lestaurtinib + Dasatinib; first compound 0.05 µM
  relative viability: 0.552
Lestaurtinib + Dasatinib; first compound 0.1581 µM
  relative viability: 0.583
Lestaurtinib + Dasatinib; first compound 0.5 µM
  relative viability: 0.4

## NCI-H2126
TPCA-1 + Lapatinib; first compound 0.04 µM
  relative viability: 0.827
TPCA-1 + Lapatinib; first compound 0.1265 µM
  relative viability: 0.736
TPCA-1 + Lapatinib; first compound 0.4 µM
  relative viability: 0.808
TPCA-1 + Lapatinib; first compound 1.265 µM
  relative viability: 0.749
TPCA-1 + Lapatinib; first compound 4 µM
  relative viability: 0.669
TPCA-1 + Crizotinib; first compound 0.04 µM
  relative viability: 1.08
TPCA-1 + Crizotinib; first compound 0.1265 µM
  relative viability: 0.93
TPCA-1 + Crizotinib; first compound 0.4 µM
  relative viability: 1.07
TPCA-1 + Crizotinib; first compound 1.265 µM
  relative viability: 0.945
TPCA-1 + Crizotinib; first compound 4 µM
  relative viability: 0.951
Lestaurtinib + Dasatinib; first compound 0.005 µM
  relative viability: 0.678
Lestaurtinib + Dasatinib; first compound 0.01581 µM
  relative viability: 0.759
Lestaurtinib + Dasatinib; first compound 0.05 µM
  relative viability: 0.59
Lestaurtinib + Dasatinib; first compound 0.1581 µM
  relative viability: 0.624
Lestaurtinib + Dasatinib; first compound 0.5 µM
  relative viability: 0.463

## LC-2-ad
TPCA-1 + Lapatinib; first compound 0.04 µM
  relative viability: 0.986
TPCA-1 + Lapatinib; first compound 0.1265 µM
  relative viability: 0.933
TPCA-1 + Lapatinib; first compound 0.4 µM
  relative viability: 1.02
TPCA-1 + Lapatinib; first compound 1.265 µM
  relative viability: 0.953
TPCA-1 + Lapatinib; first compound 4 µM
  relative viability: 0.186
TPCA-1 + Crizotinib; first compound 0.04 µM
  relative viability: 0.441
TPCA-1 + Crizotinib; first compound 0.1265 µM
  relative viability: 0.427
TPCA-1 + Crizotinib; first compound 0.4 µM
  relative viability: 0.464
TPCA-1 + Crizotinib; first compound 1.265 µM
  relative viability: 0.413
TPCA-1 + Crizotinib; first compound 4 µM
  relative viability: 0.263
Lestaurtinib + Dasatinib; first compound 0.005 µM
  relative viability: 0.618
Lestaurtinib + Dasatinib; first compound 0.01581 µM
  relative viability: 0.831
Lestaurtinib + Dasatinib; first compound 0.05 µM
  relative viability: 0.258
Lestaurtinib + Dasatinib; first compound 0.1581 µM
  relative viability: 0.281
Lestaurtinib + Dasatinib; first compound 0.5 µM
  relative viability: 0.256

## NCI-H2085
TPCA-1 + Lapatinib; first compound 0.04 µM
  relative viability: 0.825
TPCA-1 + Lapatinib; first compound 0.1265 µM
  relative viability: 0.732
TPCA-1 + Lapatinib; first compound 0.4 µM
  relative viability: 0.889
TPCA-1 + Lapatinib; first compound 1.265 µM
  relative viability: 0.7
TPCA-1 + Lapatinib; first compound 4 µM
  relative viability: 0.646
TPCA-1 + Crizotinib; first compound 0.04 µM
  relative viability: 0.921
TPCA-1 + Crizotinib; first compound 0.1265 µM
  relative viability: 0.793
TPCA-1 + Crizotinib; first compound 0.4 µM
  relative viability: 0.872
TPCA-1 + Crizotinib; first compound 1.265 µM
  relative viability: 0.765
TPCA-1 + Crizotinib; first compound 4 µM
  relative viability: 0.78
Lestaurtinib + Dasatinib; first compound 0.005 µM
  relative viability: 0.236
Lestaurtinib + Dasatinib; first compound 0.01581 µM
  relative viability: 0.265
Lestaurtinib + Dasatinib; first compound 0.05 µM
  relative viability: 0.3
Lestaurtinib + Dasatinib; first compound 0.1581 µM
  relative viability: 0.335
Lestaurtinib + Dasatinib; first compound 0.5 µM
  relative viability: 0.496

## NCI-H358
TPCA-1 + Lapatinib; first compound 0.04 µM
  relative viability: 0.479
TPCA-1 + Lapatinib; first compound 0.1265 µM
  relative viability: 0.428
TPCA-1 + Lapatinib; first compound 0.4 µM
  relative viability: 0.462
TPCA-1 + Lapatinib; first compound 1.265 µM
  relative viability: 0.361
TPCA-1 + Lapatinib; first compound 4 µM
  relative viability: 0.334
TPCA-1 + Crizotinib; first compound 0.04 µM
  relative viability: 0.759
TPCA-1 + Crizotinib; first compound 0.1265 µM
  relative viability: 0.559
TPCA-1 + Crizotinib; first compound 0.4 µM
  relative viability: 0.541
TPCA-1 + Crizotinib; first compound 1.265 µM
  relative viability: 0.39
TPCA-1 + Crizotinib; first compound 4 µM
  relative viability: 0.264
Lestaurtinib + Dasatinib; first compound 0.005 µM
  relative viability: 0.15
Lestaurtinib + Dasatinib; first compound 0.01581 µM
  relative viability: 0.129
Lestaurtinib + Dasatinib; first compound 0.05 µM
  relative viability: 0.162
Lestaurtinib + Dasatinib; first compound 0.1581 µM
  relative viability: 0.105
Lestaurtinib + Dasatinib; first compound 0.5 µM
  relative viability: 0.115

## H3255
TPCA-1 + Lapatinib; first compound 0.04 µM
  relative viability: 0.261
TPCA-1 + Lapatinib; first compound 0.1265 µM
  relative viability: 0.24
TPCA-1 + Lapatinib; first compound 0.4 µM
  relative viability: 0.236
TPCA-1 + Lapatinib; first compound 1.265 µM
  relative viability: 0.219
TPCA-1 + Lapatinib; first compound 4 µM
  relative viability: 0.162
TPCA-1 + Crizotinib; first compound 0.04 µM
  relative viability: 0.815
TPCA-1 + Crizotinib; first compound 0.1265 µM
  relative viability: 0.882
TPCA-1 + Crizotinib; first compound 0.4 µM
  relative viability: 0.863
TPCA-1 + Crizotinib; first compound 1.265 µM
  relative viability: 0.674
TPCA-1 + Crizotinib; first compound 4 µM
  relative viability: 0.848
Lestaurtinib + Dasatinib; first compound 0.005 µM
  relative viability: 0.291
Lestaurtinib + Dasatinib; first compound 0.01581 µM
  relative viability: 0.428
Lestaurtinib + Dasatinib; first compound 0.05 µM
  relative viability: 0.299
Lestaurtinib + Dasatinib; first compound 0.1581 µM
  relative viability: 0.342
Lestaurtinib + Dasatinib; first compound 0.5 µM
  relative viability: 0.323

## NCI-H2228
TPCA-1 + Lapatinib; first compound 0.04 µM
  relative viability: 1.54
TPCA-1 + Lapatinib; first compound 0.1265 µM
  relative viability: 0.867
TPCA-1 + Lapatinib; first compound 0.4 µM
  relative viability: 1.32
TPCA-1 + Lapatinib; first compound 1.265 µM
  relative viability: 0.853
TPCA-1 + Lapatinib; first compound 4 µM
  relative viability: 0.537
TPCA-1 + Crizotinib; first compound 0.04 µM
  relative viability: 0.589
TPCA-1 + Crizotinib; first compound 0.1265 µM
  relative viability: 0.489
TPCA-1 + Crizotinib; first compound 0.4 µM
  relative viability: 0.487
TPCA-1 + Crizotinib; first compound 1.265 µM
  relative viability: 0.364
TPCA-1 + Crizotinib; first compound 4 µM
  relative viability: 0.277
Lestaurtinib + Dasatinib; first compound 0.005 µM
  relative viability: 0.494
Lestaurtinib + Dasatinib; first compound 0.01581 µM
  relative viability: 0.546
Lestaurtinib + Dasatinib; first compound 0.05 µM
  relative viability: 0.497
Lestaurtinib + Dasatinib; first compound 0.1581 µM
  relative viability: 0.22
Lestaurtinib + Dasatinib; first compound 0.5 µM
  relative viability: 0.18
